From patent US11034725B2, “Compositions and methods for treating cardiovascular disease” (Genentech, Inc., priority 2016, dated 2021)
Read-outs that look alike come from different tables or passages of the source. Bridge positions count the residues as written; N and C are the ends. Square brackets hold non-standard residues; d marks the D form. Peptide text beside a SMILES is read from it. * marks the point of attachment. Butyryl(4-indol-3-yl) = O=C(CCCc1c[nH]c2ccccc12)*; X1 = O=C([C@H]1CC[C@@H](c2ccccc2)CC1)*; X21 = O=C([C@@H]1C[C@@H]1c1cccnc1)*; hArg = N=C(N)NCCCC[C@H](N)C(=O)O; X3 = O=C(CC1CCN(Cc2ccccn2)CC1)*; X39 = O=C(C1CCC(c2ccccc2)CC1)*; X22 = O=C(C1CC(Cc2ccccc2)C1)*; X8 = O=C(c1ccc(N2CCOCC2)nc1)*; X11 = O=C(CCCOc1ccc(Br)cc1)*; X38 = O=C(CC1CCS(=O)(=O)C1)*; X25 = COc1cc(CCC(=O)*)ccc1O; X33 = CN1CCN(CCC(=O)*)CC1

Tests used:
[1] = target: T1, PCSK9Δhelix (Homo sapiens, UniProt Q8NBP7); experiment: PCSK9Δhelix/Ab20 TR-FRET binding assay; details: TR-FRET, read-out: PCSK9Δhelix/Ab20 IC50
T1 construct: Human PCSK9 construct M1-Q692 with an engineered TEV site (residue deletion Y166, R167); made in house; host or cells: CHO

[2] = target: PCSK9 (Homo sapiens, UniProt Q8NBP7); experiment: PCSK9/EGF(A) TR-FRET binding assay; details: TR-FRET; Table 8E, additional compounds; read-out: PCSK9/EGF(A) IC50
Description: The former was based on a TF-FRET assay to measure the association of the EGF(A) domain of the LDLR to PCSK9 (“PCSK9/EGF(A) binding assay”) whilst the latter was based on a TR-FRET assay to measure binding of Ab20 to PCSK9Δhelix (“PCSK9Δhelix/Ab20 binding assay”).
The ability of compounds to inhibit binding to PCSK9 was evaluated with a panel of time-resolved fluorescence resonance energy transfer (TR-FRET) binding assays. […] The PCSK9Δhelix/Ab20 binding assay evaluated the ability of compounds to compete with Ab20 for binding to the N-terminal groove region in a His-tagged, PCSK9Δhelix construct. […] Signal generation in the PCSK9 binding assays was dependent upon the binding interaction to bring into close proximity the His-tag on the PCSK9 and the Fc-tag on the ligand. Anti-His-APC was bound to the His-tag, and anti-Fc-europium was bound to the Fc-tag. When these two antibodies were in close proximity and were irradiated with light at 340 nm, the europium was excited and emitted energy at 615 nm. This energy was taken up by the APC and was emitted as light at 665 nm. Compounds that competed with the ligand reduced the energy transfer and thus the emission at 665 nm. In the His-EGFA-Fc molecule in the counterscreen, the two tags were always in close proximity, thus any reduction in emission at 665 nm was due to interference with the detection system.
Compounds were solubilized and dilutions were prepared in DMSO. […] The plate was centrifuged to mix the well contents and allowed to incubate for 30 min. […] The TR-FRET signal was read on a ViewLux reader (PerkinElmer) with excitation at 340 nm and emission at 615 and 665 nm with a 50-μs time delay between excitation and measurement of emission. The TR-FRET ratio was calculated as the fluorescence emission at 665 nm divided by the fluorescence emission at 615 nm. The normalized TR-FRET ratios were plotted as a function of the compound concentrations, and the IC50 values were determined using a 4-parameter logistic regression.
In black 1536-well assay plates (MaKO, Aurora® Microplates, Whitefish, Mont.), 40 nL of peptide in DMSO were preincubated with 2 μL His-tagged PCSK9 plus anti-His-allophycocyanin in assay buffer (50 mM Tris-HCl, pH 7.5, 150 mM NaCl, 2 mM CaCl2, 0.01% Tween®-20, 0.1% bovine gamma globulins, and protease inhibitor cocktail) for 30 min. Then 2 μL of Fc-tagged ligand and anti-Fc-europium in assay buffer were added and allowed to incubate for 2 h.

[3] = Table 8D, disulfide-cyclized extension peptides

T1 sequence (Q8NBP7 with tags, fused parts or gaps limits assumed): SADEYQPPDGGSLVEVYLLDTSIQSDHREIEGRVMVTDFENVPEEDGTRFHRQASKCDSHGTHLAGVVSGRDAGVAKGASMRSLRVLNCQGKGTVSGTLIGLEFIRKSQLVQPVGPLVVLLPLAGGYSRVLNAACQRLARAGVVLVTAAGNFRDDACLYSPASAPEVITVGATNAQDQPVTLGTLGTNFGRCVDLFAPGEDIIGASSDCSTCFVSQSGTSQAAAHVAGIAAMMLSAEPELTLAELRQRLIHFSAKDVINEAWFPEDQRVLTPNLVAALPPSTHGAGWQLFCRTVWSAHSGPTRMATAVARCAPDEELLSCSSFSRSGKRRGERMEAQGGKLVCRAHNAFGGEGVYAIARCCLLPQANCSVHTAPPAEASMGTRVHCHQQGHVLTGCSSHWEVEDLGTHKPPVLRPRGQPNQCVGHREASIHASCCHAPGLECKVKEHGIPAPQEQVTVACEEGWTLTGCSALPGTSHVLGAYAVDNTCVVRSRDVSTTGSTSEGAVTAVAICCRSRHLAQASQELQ
T1 sequence (Q8NBP7 31-152 partner limits assumed): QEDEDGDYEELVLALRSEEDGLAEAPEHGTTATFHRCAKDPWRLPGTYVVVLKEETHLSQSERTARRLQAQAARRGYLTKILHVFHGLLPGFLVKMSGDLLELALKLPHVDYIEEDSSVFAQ
Chain of PCSK9 (Q8NBP7 153-692): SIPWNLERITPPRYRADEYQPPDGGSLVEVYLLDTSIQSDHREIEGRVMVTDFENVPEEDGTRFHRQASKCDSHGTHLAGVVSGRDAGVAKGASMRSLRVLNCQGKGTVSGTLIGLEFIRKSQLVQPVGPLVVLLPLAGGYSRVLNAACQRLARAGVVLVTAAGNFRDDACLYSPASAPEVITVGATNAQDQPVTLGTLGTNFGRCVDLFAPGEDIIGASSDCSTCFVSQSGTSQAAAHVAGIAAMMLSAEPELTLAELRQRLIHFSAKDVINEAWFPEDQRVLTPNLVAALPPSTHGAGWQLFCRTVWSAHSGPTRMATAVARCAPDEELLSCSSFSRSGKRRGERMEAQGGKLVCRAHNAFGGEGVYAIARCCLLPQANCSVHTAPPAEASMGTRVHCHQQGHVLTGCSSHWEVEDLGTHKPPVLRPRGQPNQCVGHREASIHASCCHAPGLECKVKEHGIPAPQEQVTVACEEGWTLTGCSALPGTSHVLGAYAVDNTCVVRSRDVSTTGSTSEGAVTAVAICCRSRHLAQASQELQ
Chain of PCSK9 (Q8NBP7 31-152 partner limits assumed): as the sequence (Q8NBP7 31-152 partner limits assumed) above

SMILES	IC50 ([1]; Table 8E, additional compounds) [µM]	IC50 [2] [µM]	IC50 [1, 3] [µM]
CC[C@H](C)[C@H](NC(=O)[C@H](CCCNC(=N)N)NC(=O)[C@@H](NC(=O)[C@H](CC(C)C)NC(=O)[C@H](CC(N)=O)NC(=O)[C@H](Cc1c[nH]c2ccccc12)NC(=O)CC1CCN(Cc2ccccn2)CC1)C(C)C)C(=O)NCC(=O)N[C@@H](CC(C)C)C(=O)N[C@@H](CC(C)C)C(=O)N[C@@H](CCCNC(=N)N)C(N)=O [Compound 130] (X3-WNLVRIGLLR-NH2)	8.6	≥ 50	–
CC[C@H](C)[C@H](NC(=O)[C@H](CCCNC(=N)N)NC(=O)[C@@H](NC(=O)[C@H](CC(C)C)NC(=O)[C@H](CC(N)=O)NC(=O)[C@H](Cc1c[nH]c2ccccc12)NC(=O)CCCc1c[nH]c2ccccc12)C(C)C)C(=O)NCC(=O)N[C@@H](CC(C)C)C(=O)N[C@H](C(=O)N[C@@H](CCCNC(=N)N)C(N)=O)[C@@H](C)O [Compound 190] ({Butyryl(4-indol-3-yl)}-WNLVRIGLTR-NH2)	7	30	–
CC[C@H](C)[C@@H]1NC(=O)[C@H](CCCNC(=N)N)NC(=O)[C@H](CCCCN)NC(=O)[C@H](CC(C)C)NC(=O)[C@H](CC(N)=O)NC(=O)[C@H](Cc2c[nH]c3ccccc23)NC(=O)[C@H](CC(C)C)NC(=O)[C@@H](NC(=O)[C@@H](N)Cc2c[nH]c3ccccc23)CSSC[C@@H](C(=O)N[C@@H](Cc2c[nH]c3ccccc23)C(=O)N[C@@H](Cc2ccccc2)C(=O)O)NC(=O)[C@H](CCC(N)=O)NC(=O)[C@H](CO)NC(=O)CNC1=O [Compound 66] (H-WCLWNLKRIGSQCWF-OH; disulfide 2-13)	–	–	12
CC[C@H](C)[C@H](NC(=O)[C@H](CCCCNC(=N)N)NC(=O)[C@@H](NC(=O)[C@H](CC(C)C)NC(=O)[C@H](CC(N)=O)NC(=O)[C@H](Cc1c[nH]c2ccccc12)NC(=O)[C@@H](N)Cc1ccc(O)cc1)C(C)C)C(=O)NCC(=O)N[C@@H](CC(C)C)C(=O)N[C@@H](CC(C)C)C(=O)N[C@@H](CCCNC(=N)N)C(N)=O [Compound 226] (H-YWNLV[hArg]IGLLR-NH2)	0.35	6.2	–
CC[C@H](C)[C@H](NC(=O)[C@H](CCCNC(=N)N)NC(=O)[C@@H](NC(=O)[C@H](CC(C)C)NC(=O)[C@H](CC(N)=O)NC(=O)[C@H](Cc1c[nH]c2ccccc12)NC(=O)CCN1CCN(C)CC1)C(C)C)C(=O)NCC(=O)N[C@@H](CC(C)C)C(=O)N[C@@H](CC(C)C)C(=O)N[C@@H](CCCNC(=N)N)C(N)=O [Compound 140] (X33-WNLVRIGLLR-NH2)	26	≥ 50	–
CC[C@H](C)[C@H](NC(=O)[C@H](CCCNC(=N)N)NC(=O)[C@@H](NC(=O)[C@H](CC(C)C)NC(=O)[C@H](CC(N)=O)NC(=O)[C@H](Cc1c[nH]c2ccccc12)NC(=O)C1CCC(c2ccccc2)CC1)C(C)C)C(=O)NCC(=O)N[C@@H](CC(C)C)C(=O)N[C@H](C(=O)N[C@@H](CCCNC(=N)N)C(N)=O)[C@@H](C)O (stereo partly drawn) [Compound 185] (X39-WNLVRIGLTR-NH2)	0.39	5.7	–
CC[C@H](C)[C@H](NC(=O)[C@H](CCCNC(=N)N)NC(=O)[C@@H](NC(=O)[C@H](CC(C)C)NC(=O)[C@H](CC(N)=O)NC(=O)[C@H](Cc1c[nH]c2ccccc12)NC(=O)CCCOc1ccc(Br)cc1)C(C)C)C(=O)NCC(=O)N[C@@H](CC(C)C)C(=O)N[C@H](C(=O)N[C@@H](CCCNC(=N)N)C(N)=O)[C@@H](C)O [Compound 182] (X11-WNLVRIGLTR-NH2)	4	14	–
CC[C@H](C)[C@H](NC(=O)[C@H](CCCNC(=N)N)NC(=O)[C@@H](NC(=O)[C@H](CC(C)C)NC(=O)[C@H](CC(N)=O)NC(=O)[C@H](Cc1c[nH]c2ccccc12)NC(=O)c1ccc(N2CCOCC2)nc1)C(C)C)C(=O)NCC(=O)N[C@@H](CC(C)C)C(=O)N[C@@H](CC(C)C)C(=O)N[C@@H](CCCNC(=N)N)C(N)=O [Compound 134] (X8-WNLVRIGLLR-NH2)	4.2	≥ 50	–
CC[C@H](C)[C@H](NC(=O)[C@H](CCCNC(=N)N)NC(=O)[C@@H](NC(=O)[C@H](CC(C)C)NC(=O)[C@H](CC(N)=O)NC(=O)[C@H](Cc1c[nH]c2ccccc12)NC(=O)CC1CCS(=O)(=O)C1)C(C)C)C(=O)NCC(=O)N[C@@H](CC(C)C)C(=O)N[C@@H](CC(C)C)C(=O)N[C@@H](CCCNC(=N)N)C(N)=O (stereo partly drawn) [Compound 139] (X38-WNLVRIGLLR-NH2)	19	≥ 50	–
CC[C@H](C)[C@H](NC(=O)[C@H](CCCCNC(=N)N)NC(=O)[C@@H](NC(=O)[C@H](CC(C)C)NC(=O)[C@H](CC(N)=O)NC(=O)[C@H](Cc1c[nH]c2ccccc12)NC(=O)CCc1ccc(O)c(OC)c1)C(C)C)C(=O)NCC(=O)N[C@@H](CC(C)C)C(=O)N[C@@H](CC(C)C)C(=O)N[C@@H](CC(N)=O)C(N)=O [Compound 238] (X25-WNLV[hArg]IGLLN-NH2)	0.33	7.7	–
CC[C@H](C)[C@H](NC(=O)[C@H](CCCCNC(=N)N)NC(=O)[C@@H](NC(=O)[C@H](CC(C)C)NC(=O)[C@H](CC(N)=O)NC(=O)[C@H](Cc1c[nH]c2ccccc12)NC(=O)CCCc1c[nH]c2ccccc12)C(C)C)C(=O)NCC(=O)N[C@@H](CC(C)C)C(=O)N[C@@H](CC(C)C)C(=O)N[C@@H](CCCNC(=N)N)C(N)=O [Compound 200] ({Butyryl(4-indol-3-yl)}-WNLV[hArg]IGLLR-NH2)	0.67	3.2	–
CC[C@H](C)[C@H](NC(=O)[C@H](CCCNC(=N)N)NC(=O)[C@@H](NC(=O)[C@H](CC(C)C)NC(=O)[C@H](CC(N)=O)NC(=O)[C@H](Cc1c[nH]c2ccccc12)NC(=O)C1CC(Cc2ccccc2)C1)C(C)C)C(=O)NCC(=O)N[C@@H](CC(C)C)C(=O)N[C@@H](CC(C)C)C(=O)N[C@@H](CCCNC(=N)N)C(N)=O (stereo partly drawn) [Compound 144] (X22-WNLVRIGLLR-NH2)	4	9.7	–
CC[C@H](C)[C@H](NC(=O)[C@H](CCCCNC(=N)N)NC(=O)[C@@H](NC(=O)[C@H](CC(C)C)NC(=O)[C@H](CC(N)=O)NC(=O)[C@H](Cc1c[nH]c2ccccc12)NC(=O)[C@H]1CC[C@@H](c2ccccc2)CC1)C(C)C)C(=O)NCC(=O)N[C@@H](CC(C)C)C(=O)N[C@@H](CC(C)C)C(=O)N[C@@H](CCCNC(=N)N)C(N)=O [Compound 208] (X1-WNLV[hArg]IGLLR-NH2)	0.1	0.45	–
CC[C@H](C)[C@@H]1NC(=O)[C@H](CCCNC(=N)N)NC(=O)[C@H](CCCCN)NC(=O)[C@H](CC(C)C)NC(=O)[C@H](CC(N)=O)NC(=O)[C@H](Cc2c[nH]c3ccccc23)NC(=O)[C@H](CC(C)C)NC(=O)[C@@H](NC(=O)[C@H](Cc2c[nH]c3ccccc23)NC(C)=O)CSSC[C@@H](C(=O)N[C@@H](Cc2c[nH]c3ccccc23)C(=O)N[C@@H](Cc2ccccc2)C(=O)O)NC(=O)[C@H](CCC(N)=O)NC(=O)[C@H](CO)NC(=O)CNC1=O [Compound 90] (Ac-WCLWNLKRIGSQCWF-OH; disulfide 2-13)	–	–	7.38
CC[C@H](C)[C@H](NC(=O)[C@H](CCCCNC(=N)N)NC(=O)[C@@H](NC(=O)[C@H](CC(C)C)NC(=O)[C@H](CC(N)=O)NC(=O)[C@H](Cc1c[nH]c2ccccc12)NC(=O)[C@@H]1C[C@@H]1c1cccnc1)C(C)C)C(=O)NCC(=O)N[C@@H](CC(C)C)C(=O)N[C@@H](CC(C)C)C(=O)N[C@@H](CCCNC(=N)N)C(N)=O [Compound 221] (X21-WNLV[hArg]IGLLR-NH2)	–	9.5	–
